pKd, pKi: −log10 of the molar value. Entries after “also recorded” stand apart in the source; their conditions may differ. Where a name gives a salt, the structure may show the parent alone. Read-outs that look alike come from different tables or passages of the source.
Assays:
[1] = target: T1, rabbit ciliary process adenylate cyclase (beta2-adrenergic receptors) (Oryctolagus cuniculus, UniProt G1TAV7); assay: rabbit ciliary process isoproterenol-stimulated adenylate cyclase; type: biochemical; conditions: Table III; rabbit ciliary process, isoproterenol-stimulated
T1 construct: Homogenates or washed particulate preparations (10 mg/ml) in 6 mM Tris-maleate, pH 7.4, are prepared from the various tissues to be studied; from tissue; host or cells: rabbit ciliary process

[2] = system: rabbit ciliary process adenylate cyclase (beta2-adrenergic receptors); assay: as above; type: biochemical; conditions: for Ki heart / Ki Ciliary Process = beta2/beta1 potency ratio: Table III, rabbit heart vs rabbit ciliary process, ±20%
[3] = target: rabbit heart isoproterenol-stimulated adenylate cyclase; assay: rabbit heart isoproterenol-stimulated adenylate cyclase; type: biochemical
[4] = target: beta1-adrenergic receptor present in mammalian heart; conditions: Table I; data from Minneman et al; read-out: Kd for IHYP Binding, Heart (E); cited from earlier work
heart adenylate cyclase = conditions: Table I, data from Minneman et al, cited from earlier work; for pKi: antagonists, read-out: Adenylate Cyclase Ki, Heart (G)
adult female cats = conditions: Colasanti and Trotter 1979; cited from earlier work
rabbit eyes = assay: intraocular pressure in normal rabbit eyes after topical application; conditions: for IOP in the contralateral eye: 0.5% topical to ipsilateral eye, presumably systemic absorption; for IOP in ipsilateral eyes compared to predrug readings: two 50 microliter doses, normal rabbit, FIG. 2
[5] = system: ciliary body adenylate cyclase; assay: ciliary body adenylate cyclase stimulation; type: biochemical
From the text: (§1) The discovery that the ciliary process of the mammalian eye contains β2 -adrenergic receptors is based on the technique of measuring adenylate cyclase, an enzyme which synthesizes cyclic AMP from ATP. It has been established that receptor binding of beta adrenergic agonists is associated with a concomitant activation of adenylate cyclase. (Robison, G. A., et al, Cyclic AMP, Academic Press, New York, 1971, and Wolfe, B. B., et al, Annual Reviews of Pharmacology and Toxicology, 17:575-604 (1977)). […] Beta adrenergic sensitive adenylate cyclase activity was thus identified and characterized in the ocular tissues of several mammalian species such as rabbits, cats, dogs, monkeys and humans. After isolation of the ciliary process, adenylate cyclase activity was measured, and its activation by agonists or inhibition by antagonists was measured. […].
(§2) For ciliary body, maximal stimulation was 15% of the stimulation seen in the ciliary process, and for iris, maximal stimulation was 22% for that seen in the ciliary process. […];

iris adenylate cyclase = iris adenylate cyclase stimulation; type: biochemical
From the text: as §1, §2

[6] = Table III, rabbit heart, isoproterenol-stimulated, read-out: Adenylate Cyclase Ki, Heart

T1 sequence (G1TAV7 1-437): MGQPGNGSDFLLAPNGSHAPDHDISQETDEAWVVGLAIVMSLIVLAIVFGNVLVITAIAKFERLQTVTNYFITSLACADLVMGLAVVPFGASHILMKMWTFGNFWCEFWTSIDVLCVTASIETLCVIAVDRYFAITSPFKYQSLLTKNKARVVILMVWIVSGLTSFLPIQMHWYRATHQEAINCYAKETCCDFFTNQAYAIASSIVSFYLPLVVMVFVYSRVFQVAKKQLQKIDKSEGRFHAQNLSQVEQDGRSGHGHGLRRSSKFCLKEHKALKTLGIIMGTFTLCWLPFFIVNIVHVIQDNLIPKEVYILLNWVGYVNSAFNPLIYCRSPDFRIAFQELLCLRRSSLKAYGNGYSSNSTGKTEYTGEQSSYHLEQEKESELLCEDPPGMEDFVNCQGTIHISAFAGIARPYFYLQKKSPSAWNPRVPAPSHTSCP

Cc1ccc(C(O)C(C)NC(C)C)cc1 (stereo not drawn) [H35/25, (1(4'-methyl phenyl)-2-isopropylaminopropanol)]
pKi [1]: 6.10 | Ki heart / Ki Ciliary Process = beta2/beta1 potency ratio [2]: 8.8 | β2/β1 potency ratio (Ki heart/Ki ciliary process) ([2]; rabbit, heart vs ciliary process): 3.1 | pKi [3, 6]: 5.15 | pKd [4]: 5.71 | pKi (heart adenylate cyclase): 5.15 | maximal reduction of intraocular tension (adult female cats): about the same maximal reduction as timolol

CNC[C@H](O)c1ccc(O)c(O)c1 [Epinephrine]
Adenylate Cyclase Ka, Heart (G) (heart adenylate cyclase; agonists, NE = no effect as agonist): 1.5 µM

CC(C)(C)NC[C@H](O)COc1nsnc1N1CCOCC1 [Timolol, timolol]
pKi [1]: 8.35 | pKi [3, 6]: 7.80 | pKi (heart adenylate cyclase): 7.80 | IOP in the contralateral eye (rabbit eyes): significant decrease in IOP in the contralateral eye | IOP in ipsilateral eyes compared to predrug readings (rabbit eyes; 0.5% topical): significant decrease in IOP in ipsilateral eyes at 2 and 3 hours after application; also recorded: significant decrease at 1 hour

CC(C)NCC(O)COc1ccc(CC(N)=O)cc1 (stereo not drawn) [Atenolol, atenolol]
pKi [1]: 4.96

CC(C)(C)NCC(O)CON=C1c2ccccc2-c2ccccc21 (stereo not drawn) [IPS 339, (t-butyl-amino 3-ol-2-propyl)oximino-9 fluorene, hydrochloride]
pKi ([3]; Table I, footnote ++ present invention, read-out: Adenylate Cyclase Ki, Heart (G)): 6.08 | pKi [3, 6]: 6.08 | IOP in the contralateral eye (rabbit eyes): significant decrease in IOP in the contralateral eye | IOP in ipsilateral eyes compared to predrug readings (rabbit eyes; 0.5% topical): significant decrease in IOP in ipsilateral eyes at 2 and 3 hours after application | extent of IOP decrease, IPS 339 compared with timolol (rabbit eyes; 0.5% topical, at 3 hours): significantly more than that caused by timolol | magnitude of contralateral IOP effect (rabbit eyes; 0.5% topical, compared with timolol): somewhat less for IPS 339 than for timolol

CC(=O)Nc1ccc(OCC(O)CNC(C)C)cc1 (stereo not drawn) [Practolol, practolol]
pKi [1]: 4.68 | pKi [3, 6]: 5.17 | pKi (heart adenylate cyclase): 5.17

COc1ccc(OC)c(C(O)C(C)NC(C)(C)C)c1 (stereo not drawn) [Butoxamine]
pKi [1]: 5.85 | β2/β1 potency ratio (Ki heart/Ki ciliary process) ([2]; Table II, from Table I, accurate to ±20%): 1.50 | Ki heart / Ki Ciliary Process = beta2/beta1 potency ratio [2]: 6.8 | pKi [3, 6]: 5.02 | pKi (heart adenylate cyclase): 5.02

CC(C)NCC(O)c1ccc(O)c(O)c1 (stereo not drawn) [Isoproterenol, isoproterenol]
maximal stimulation, ciliary body [5]: 15 % of the stimulation seen in the ciliary process | maximal stimulation, iris (iris adenylate cyclase): 22 % for that seen in the ciliary process
